# The supplement of paper PMC10307832
# Assays:
# Test in all cases: relative viability (nuclei count vs DMSO), 5 days (fraction); higher = more cells survive
# [1] = compound: CC1=C(C(=NN1)C)CC2=C(C3=C(S2)N(C(=O)N(C3=O)C)CC(C)C)C(=O)N4C[C@@H](CO4)O + CS(=O)(=O)CCNCc1ccc(-c2ccc3ncnc(Nc4ccc(OCc5cccc(F)c5)c(Cl)c4)c3c2)o1 [Lapatinib] (partner 2 µM)
# Procedure, shortened: (§1)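 Lung cancer cell lines in 1536-well plates got either a single drug or a fixed anchor-drug dose together with five library-drug doses (not always all listed) in √10 steps, by pin tool, on the day after seeding. Nuclei were counted after 5 days, and relative viability is the treated-to-vehicle ratio of nuclei counts. Values are medians of duplicate plates.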
# IDH-C35 + Alpelisib = compound: Cc1ccccc1C(C(=O)NC1CCCCC1)N(C(=O)Cn1ccnc1C)c1cccc(F)c1 [IDH-C35] + Cc1nc(NC(=O)N2CCC[C@H]2C(N)=O)sc1-c1ccnc(C(C)(C)C(F)(F)F)c1 [Alpelisib] (partner 2 µM)
# Procedure, shortened: as §1
# IDH-C35 + Tozasertib = compound: Cc1ccccc1C(C(=O)NC1CCCCC1)N(C(=O)Cn1ccnc1C)c1cccc(F)c1 [IDH-C35] + Cc1cc(Nc2cc(N3CCN(C)CC3)nc(Sc3ccc(NC(=O)C4CC4)cc3)n2)n[nH]1 [Tozasertib] (partner 0.1 µM)
# Procedure, shortened: as §1
# IDH-C35 + Olaparib = compound: Cc1ccccc1C(C(=O)NC1CCCCC1)N(C(=O)Cn1ccnc1C)c1cccc(F)c1 [IDH-C35] + O=C(c1cc(Cc2n[nH]c(=O)c3ccccc23)ccc1F)N1CCN(C(=O)C2CC2)CC1 [Olaparib] (partner 8 µM)
# Procedure, shortened: as §1
Cell Line,relative viability ([1]; first compound 0.0025 µM),relative viability ([1]; first compound 0.007906 µM),relative viability ([1]; first compound 0.025 µM),relative viability ([1]; first compound 0.07906 µM),relative viability ([1]; first compound 0.25 µM),relative viability (IDH-C35 + Alpelisib; first compound 0.08 µM),relative viability (IDH-C35 + Alpelisib; first compound 0.253 µM),relative viability (IDH-C35 + Alpelisib; first compound 0.8 µM),relative viability (IDH-C35 + Alpelisib; first compound 2.53 µM),relative viability (IDH-C35 + Alpelisib; first compound 8 µM),relative viability (IDH-C35 + Tozasertib; first compound 0.08 µM),relative viability (IDH-C35 + Tozasertib; first compound 0.253 µM),relative viability (IDH-C35 + Tozasertib; first compound 0.8 µM),relative viability (IDH-C35 + Tozasertib; first compound 2.53 µM),relative viability (IDH-C35 + Tozasertib; first compound 8 µM),relative viability (IDH-C35 + Olaparib; first compound 0.08 µM),relative viability (IDH-C35 + Olaparib; first compound 0.253 µM),relative viability (IDH-C35 + Olaparib; first compound 0.8 µM),relative viability (IDH-C35 + Olaparib; first compound 2.53 µM),relative viability (IDH-C35 + Olaparib; first compound 8 µM)
HCC-827,0.189,0.171,0.192,0.156,0.167,0.917,0.897,1.04,1,0.75,0.4,0.394,0.388,0.428,0.433,0.545,0.608,0.614,0.708,0.658
HOP-62,1.05,0.946,1.05,0.952,1.08,1.07,0.876,0.953,,0.85,0.394,0.368,0.334,0.382,0.331,0.46,0.222,0.272,,0.39
LC-2-ad,1.01,0.893,0.993,0.912,1.14,0.888,0.815,0.834,0.894,0.921,0.472,0.435,0.503,,0.428,0.728,0.707,0.715,0.729,0.702
LCLC-97TM1,0.721,0.776,0.896,0.972,1.13,0.289,0.213,0.242,,0.242,0.397,0.189,0.184,0.196,0.231,0.322,0.291,0.341,,0.47
LK-2,0.987,0.933,0.787,0.903,0.851,1.11,1.05,0.991,1.1,1.04,0.157,0.197,0.178,0.184,0.203,0.842,0.772,0.575,0.701,0.73
LOU-NH91,0.74,0.755,0.815,0.781,0.813,0.746,0.774,0.712,0.711,0.706,0.739,0.69,0.687,0.598,0.652,0.949,0.976,0.888,0.852,0.919
LU99A,1.22,0.982,0.9,0.975,1.11,0.49,0.514,0.553,0.517,0.562,0.281,0.255,0.257,0.296,0.257,0.254,0.247,0.291,0.259,0.248
LXF-289,0.909,0.855,0.875,0.891,0.975,1.04,1.03,1.01,0.994,1.03,0.17,0.173,0.201,0.209,0.166,1.1,0.996,1.03,1.01,1.08
NCI-H23,1.21,1.26,0.931,1.27,1.28,0.622,0.591,0.648,0.73,0.834,0.325,0.399,0.414,0.313,0.406,0.306,0.329,0.33,0.321,0.381
NCI-H322M,0.626,0.605,0.601,0.55,0.524,0.878,0.818,0.743,0.806,0.837,0.46,0.494,0.466,0.467,0.517,0.616,0.796,0.794,0.789,0.845
NCI-H358,0.58,0.425,0.478,0.514,0.434,0.916,0.871,0.746,0.857,0.915,0.099,0.112,0.112,0.0888,0.0934,0.57,0.491,0.549,0.575,0.554
NCI-H460,0.959,1.34,0.996,1.08,1.28,0.472,0.504,0.545,0.549,0.439,0.614,0.396,0.493,0.336,0.412,0.416,0.419,0.439,0.387,0.367
NCI-H520,0.983,0.823,0.621,0.496,0.544,0.71,0.808,0.891,0.845,0.954,0.327,0.427,0.54,0.405,0.409,0.309,0.284,0.313,0.308,0.351
NCI-H596,1.12,1.19,1.14,0.982,1.09,0.552,0.48,0.555,0.471,0.446,1.01,0.866,0.937,,0.788,0.591,0.653,0.773,0.751,0.785
NCI-H647,1.28,1.35,1.04,1.15,1.19,1.14,1.23,1.14,1.12,0.917,0.29,0.244,0.21,0.261,0.284,0.453,0.516,0.435,0.586,0.508
NCI-H650,0.939,0.0037,0.753,0.893,0.956,1.07,1.13,1.17,,1.03,0.669,0.765,0.768,,0.698,0.334,0.393,0.366,,0.376
